{"source": "paper PMC6944674", "about": "“Comparison of the Hepatotoxic Potential of Two Treatments for Autosomal-Dominant Polycystic Kidney DiseaseUsing Quantitative Systems Toxicology Modeling” (Pharmaceutical Research, 2020)", "key": {"human BSEP [1]": {"target": "T1, human BSEP (Homo sapiens, UniProt O95342)", "T1 construct": "host or cells: HEK-293 cell membrane vesicles", "T1 sequence (O95342 whole entry)": "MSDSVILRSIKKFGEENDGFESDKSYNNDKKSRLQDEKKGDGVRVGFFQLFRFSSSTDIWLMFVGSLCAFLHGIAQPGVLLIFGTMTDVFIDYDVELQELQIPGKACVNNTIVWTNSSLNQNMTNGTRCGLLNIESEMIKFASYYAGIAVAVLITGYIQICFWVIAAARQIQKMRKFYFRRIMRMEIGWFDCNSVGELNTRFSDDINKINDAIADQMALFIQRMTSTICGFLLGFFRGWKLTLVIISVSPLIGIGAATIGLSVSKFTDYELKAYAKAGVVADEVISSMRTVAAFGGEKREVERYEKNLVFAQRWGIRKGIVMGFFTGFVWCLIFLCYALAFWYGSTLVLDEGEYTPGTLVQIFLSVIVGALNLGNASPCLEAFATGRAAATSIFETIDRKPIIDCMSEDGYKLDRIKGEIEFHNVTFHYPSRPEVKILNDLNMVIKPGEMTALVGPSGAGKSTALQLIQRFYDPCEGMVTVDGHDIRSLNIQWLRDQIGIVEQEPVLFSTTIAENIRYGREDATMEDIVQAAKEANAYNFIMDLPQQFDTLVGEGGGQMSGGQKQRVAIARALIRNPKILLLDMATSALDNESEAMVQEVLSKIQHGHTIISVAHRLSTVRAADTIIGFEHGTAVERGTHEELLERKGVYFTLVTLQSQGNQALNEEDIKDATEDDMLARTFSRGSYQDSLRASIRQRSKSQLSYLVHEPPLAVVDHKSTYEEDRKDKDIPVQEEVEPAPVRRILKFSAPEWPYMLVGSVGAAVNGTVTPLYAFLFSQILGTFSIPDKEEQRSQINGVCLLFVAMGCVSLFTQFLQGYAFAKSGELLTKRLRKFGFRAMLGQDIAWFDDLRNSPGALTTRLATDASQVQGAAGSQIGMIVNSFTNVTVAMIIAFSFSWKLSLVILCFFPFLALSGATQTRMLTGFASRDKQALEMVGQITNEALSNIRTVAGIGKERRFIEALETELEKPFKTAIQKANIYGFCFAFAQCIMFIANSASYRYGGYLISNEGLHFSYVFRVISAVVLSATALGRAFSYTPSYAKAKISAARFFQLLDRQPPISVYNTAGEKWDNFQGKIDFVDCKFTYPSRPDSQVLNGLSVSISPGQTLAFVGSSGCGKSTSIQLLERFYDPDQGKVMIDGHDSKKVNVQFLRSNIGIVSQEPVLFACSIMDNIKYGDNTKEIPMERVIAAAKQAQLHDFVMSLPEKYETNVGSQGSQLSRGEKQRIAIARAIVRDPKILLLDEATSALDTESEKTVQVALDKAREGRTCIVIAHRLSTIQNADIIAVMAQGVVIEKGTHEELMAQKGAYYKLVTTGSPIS", "assay": "BSEP vesicular transport inhibition assay (taurocholate, HEK-293 cell membrane vesicles)", "format": "biochemical", "experimental": "(§1) The functional impact of lixivaptan, its three metabolites and tolvaptan on the human ABC (efflux) transporters BSEP and MRP3 and MRP4 was assessed for this project using in vitro vesicular transport inhibition assays. The inhibition of the human SLC (uptake) transporter NTCP was assessed using CHO cells stably expressing human NTCP. The concentration ranges used for the five test articles was determined based on the solubility of each compound in the assay solution. All transporter inhibition assays were conducted in triplicate by Solvo Biotechnology (Szeged, Hungary).\nFor the simulation of bile acid transporter inhibition by lixivaptan in DILIsym, parameter values were selected for BSEP canalicular transport, basolateral transport (encompassing both MRP3 and MRP4), and NTCP transport. The parameter values for each include the inhibition constant, defined as the IC50 or Ki value, and the inhibition type, defined as competitive, non-competitive, or mixed inhibition.\nIn vesicular transport inhibition assays, lixivaptan and its metabolites each inhibited BSEP-mediated probe substrate accumulation (Figure B1) and MRP4-mediated probe substrate accumulation (Figure B2) dose-dependently.\nFigure B1. […] See Appendix A for more details."}, "human NTCP": {"target": "T2, human NTCP (Homo sapiens, UniProt Q14973)", "T2 sequence (Q14973 1-349)": "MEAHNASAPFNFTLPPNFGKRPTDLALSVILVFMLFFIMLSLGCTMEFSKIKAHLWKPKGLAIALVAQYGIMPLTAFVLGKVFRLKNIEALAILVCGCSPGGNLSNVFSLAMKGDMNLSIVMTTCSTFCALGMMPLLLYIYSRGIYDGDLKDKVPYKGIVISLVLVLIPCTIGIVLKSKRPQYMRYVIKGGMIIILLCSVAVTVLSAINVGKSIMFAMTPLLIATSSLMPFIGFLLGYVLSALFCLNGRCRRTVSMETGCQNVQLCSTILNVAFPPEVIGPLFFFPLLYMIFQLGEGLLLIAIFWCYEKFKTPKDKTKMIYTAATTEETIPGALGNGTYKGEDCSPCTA", "assay": "NTCP inhibition in CHO cells stably expressing human NTCP (taurocholate)", "format": "cell-based", "settings": "CHO cells", "experimental": "as §1\nFigure B4. […] See Appendix A for more details."}, "human MRP3": {"target": "T3, human MRP3 (Homo sapiens, UniProt O15438)", "T3 construct": "host or cells: HEK-293 cell membrane vesicles", "T3 sequence (O15438 whole entry)": "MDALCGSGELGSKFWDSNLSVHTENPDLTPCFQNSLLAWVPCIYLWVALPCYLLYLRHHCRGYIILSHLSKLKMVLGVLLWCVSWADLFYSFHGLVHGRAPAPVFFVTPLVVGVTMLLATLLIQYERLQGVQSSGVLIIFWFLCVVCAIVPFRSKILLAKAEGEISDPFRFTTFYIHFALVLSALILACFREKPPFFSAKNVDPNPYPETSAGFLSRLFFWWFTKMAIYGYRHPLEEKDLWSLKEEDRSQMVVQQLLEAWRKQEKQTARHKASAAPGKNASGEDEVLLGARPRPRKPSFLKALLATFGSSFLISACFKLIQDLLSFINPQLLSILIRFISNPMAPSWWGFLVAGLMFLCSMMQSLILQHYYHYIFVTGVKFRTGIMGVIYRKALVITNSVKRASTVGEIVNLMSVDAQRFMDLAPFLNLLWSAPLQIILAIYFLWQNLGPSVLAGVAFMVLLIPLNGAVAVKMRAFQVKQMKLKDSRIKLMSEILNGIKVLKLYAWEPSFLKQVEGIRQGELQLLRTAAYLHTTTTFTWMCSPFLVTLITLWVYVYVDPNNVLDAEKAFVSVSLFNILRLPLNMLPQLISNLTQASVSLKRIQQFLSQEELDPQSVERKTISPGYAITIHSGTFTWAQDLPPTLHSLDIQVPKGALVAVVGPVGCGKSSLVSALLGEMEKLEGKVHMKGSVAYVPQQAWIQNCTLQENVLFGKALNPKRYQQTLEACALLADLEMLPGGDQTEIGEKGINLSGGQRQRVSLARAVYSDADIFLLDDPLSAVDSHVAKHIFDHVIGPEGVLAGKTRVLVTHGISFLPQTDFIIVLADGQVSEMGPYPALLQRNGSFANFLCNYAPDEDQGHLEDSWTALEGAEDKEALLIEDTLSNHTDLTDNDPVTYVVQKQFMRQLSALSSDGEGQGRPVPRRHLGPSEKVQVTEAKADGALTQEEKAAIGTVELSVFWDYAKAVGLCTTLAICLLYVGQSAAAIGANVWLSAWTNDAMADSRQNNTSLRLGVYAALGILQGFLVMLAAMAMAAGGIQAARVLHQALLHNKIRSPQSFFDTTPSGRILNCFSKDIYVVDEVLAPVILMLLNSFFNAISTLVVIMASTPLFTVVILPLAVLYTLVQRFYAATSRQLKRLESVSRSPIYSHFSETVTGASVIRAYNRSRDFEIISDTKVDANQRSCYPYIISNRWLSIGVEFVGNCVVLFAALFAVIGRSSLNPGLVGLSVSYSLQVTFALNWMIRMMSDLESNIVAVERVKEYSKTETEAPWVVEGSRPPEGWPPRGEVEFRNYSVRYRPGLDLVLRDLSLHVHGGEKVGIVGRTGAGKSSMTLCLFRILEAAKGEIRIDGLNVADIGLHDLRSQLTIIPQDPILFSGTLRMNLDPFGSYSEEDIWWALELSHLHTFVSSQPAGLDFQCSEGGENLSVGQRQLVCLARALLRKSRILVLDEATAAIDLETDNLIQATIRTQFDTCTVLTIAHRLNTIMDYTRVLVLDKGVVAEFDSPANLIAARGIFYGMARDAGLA", "assay": "MRP3 vesicular transport inhibition assay (E217βG, HEK-293 cell membrane vesicles)", "format": "biochemical", "experimental": "as §1\nFigure B3. […] See Appendix A for more details."}, "HepG2 cells [2]": {"test_system": "HepG2 cells", "assay": "Seahorse XFe96 cellular respiration assay (oxygen consumption rate)", "format": "cell-based", "settings": "24 hour incubation", "experimental": "To assess the potential effect of the five test articles on mitochondrial function, cellular respiration assays using a Seahorse XFe96 Flux Analyzer were conducted by Cyprotex (Macclesfield, UK) and overseen by the authors. HepG2 cells were incubated with each test article for 1 or 24 hours and tested for an effect on cellular respiration by measuring the oxygen consumption rate (OCR). Each study was conducted in triplicate. Importantly, the 1 hour culture was conducted in the absence of serum (i.e. no serum protein binding) as is standard for the Seahorse Analyzer assay conditions."}, "[3]": {"test_system": "mitochondrial electron transport chain", "assay": "ETC inhibition parameter from MITOsym simulation of OCR data, translated to DILIsym", "settings": "calculated from 24 h HepG2 OCR data and measured intracellular concentrations; lower = higher risk", "text": "The parameters calculated in this manner were then translated to DILIsym parameters using a conversion factor based on the relative activity of rotenone in the in vitro vs. in vivo environment (7)."}, "[4]": {"assay": "Intracellular concentration by LC/MS/MS in HepG2 cultures parallel to Seahorse assay", "format": "in vitro ADME", "settings": "human, HepG2 cells, Seahorse medium", "experimental": "(§2) The concentration of test compound at the site of action (i.e. hepatocytes) has been identified as highly influential in the selection of parameter values (7). To assess intracellular concentrations of the five test articles, identical HepG2 cultures were established in parallel and cell lysate concentrations of the test articles were measured by LC/MS/MS analysis. Intracellular concentrations of the test articles were calculated by correcting for cell lysate volume (100 µL) and the volume of HepG2 cells in each well, which was calculated by multiplying cell count per well by cellular volume per cell (2.85 pl/cell). One independent study in duplicate was conducted to assess intracellular concentrations of the test articles for Seahorse studies."}, "HepG2 cells [5]": {"test_system": "HepG2 cells", "assay": "Intracellular concentration by LC/MS/MS in HepG2 cultures parallel to Seahorse assay", "format": "in vitro ADME", "settings": "Seahorse medium; for CIntracellular Fraction: cell lysate; for CHepatocyte: corrected for lysate and HepG2 cell volume", "experimental": "as §2"}, "human BSEP [6]": {"target": "T1, human BSEP", "set-up": "method as in earlier work", "settings": "ref (7); read-out: BSEP Ki used in DILIsym simulations previously; cited from earlier work"}, "[7]": {"test_system": "mitochondrial electron transport chain", "settings": "intracellular concentrations not measured; cited from earlier work"}, "simulated individuals": {"test_system": "simulated individuals", "set-up": "method as in PMID 27655350", "settings": "24 weeks, cited from earlier work; for Simulated ALT >3X ULN, frequency: 90/30 mg split daily dosing"}, "[8]": {"settings": "90/30 mg, cited from earlier work"}}, "note": "Where “and” joins values, the source holds several entries; their conditions need not be identical. Equal values may be shown once. Read-outs that look alike come from different tables or passages of the source."}
{"smiles": "Cc1ccccc1C(=O)Nc1ccc(C(=O)N2CCCC(O)c3cc(Cl)ccc32)c(C)c1", "note": "(centres unmarked) [Tolvaptan, tolvaptan, reference compound]", "values": [{"measurement": "IC50", "setting": "human BSEP [1]; read-out: BSEP inhibition constant (IC50)", "value": 16.5, "unit": "µM"}, {"measurement": "inhibition of BSEP-mediated probe substrate accumulation", "setting": "human BSEP [1]; vesicular transport inhibition assay", "value": "inhibited"}, {"measurement": "inhibition of NTCP-mediated probe substrate accumulation", "setting": "human NTCP", "value": "inhibited"}, {"measurement": "inhibition of MRP3-mediated probe substrate accumulation", "setting": "human MRP3", "value": "inhibited"}, {"measurement": "effect on HepG2 oxygen consumption rate (mitochondrial respiration)", "setting": "HepG2 cells [2]", "value": "reduce the HepG2 OCR in a dose-dependent manner"}, {"measurement": "Coefficient for ETC inhibition (DILIsym parameter)", "setting": "[3]", "value": 729, "unit": "µM"}, {"measurement": "Kp at 5 µM", "setting": "[4]; dose 5 µM", "value": 6.44}, {"measurement": "Kp at 10 µM", "setting": "[4]; dose 10 µM", "value": 3.44}, {"measurement": "Kp at 25 µM", "setting": "[4]; dose 25 µM", "value": 5.97}, {"measurement": "Kp at 40 µM", "setting": "[4]; dose 40 µM", "value": 5.7}, {"measurement": "CIntracellular Fraction", "setting": "HepG2 cells [5]; dose 0.1 µM", "value": 0, "unit": "µM"}, {"measurement": "CHepatocyte", "setting": "HepG2 cells [5]; dose 0.1 µM", "value": 0, "unit": "µM"}, {"measurement": "CIntracellular Fraction", "setting": "HepG2 cells [5]; dose 0.5 µM", "value": 0, "unit": "µM"}, {"measurement": "CHepatocyte", "setting": "HepG2 cells [5]; dose 0.5 µM", "value": 0, "unit": "µM"}, {"measurement": "CIntracellular Fraction", "setting": "HepG2 cells [5]; dose 1 µM", "value": 0, "unit": "µM"}, {"measurement": "CHepatocyte", "setting": "HepG2 cells [5]; dose 1 µM", "value": 0, "unit": "µM"}, {"measurement": "CIntracellular Fraction", "setting": "HepG2 cells [5]; dose 5 µM", "value": 0.0156, "unit": "µM"}, {"measurement": "CHepatocyte", "setting": "HepG2 cells [5]; dose 5 µM", "value": 32.20, "unit": "µM"}, {"measurement": "CIntracellular Fraction", "setting": "HepG2 cells [5]; dose 10 µM", "value": 0.0162, "unit": "µM"}, {"measurement": "CHepatocyte", "setting": "HepG2 cells [5]; dose 10 µM", "value": 34.40, "unit": "µM"}, {"measurement": "CIntracellular Fraction", "setting": "HepG2 cells [5]; dose 25 µM", "value": 0.0629, "unit": "µM"}, {"measurement": "CHepatocyte", "setting": "HepG2 cells [5]; dose 25 µM", "value": 149.2, "unit": "µM"}, {"measurement": "CIntracellular Fraction", "setting": "HepG2 cells [5]; dose 40 µM", "value": 0.0937, "unit": "µM"}, {"measurement": "CHepatocyte", "setting": "HepG2 cells [5]; dose 40 µM", "value": 227.9, "unit": "µM"}, {"measurement": "Ki", "setting": "human BSEP [6]", "value": 31.6, "unit": "µM"}, {"measurement": "Coefficient for ETC inhibition (DILIsym parameter) used in previously published research", "setting": "[7]", "value": 1.09, "unit": "mM"}, {"measurement": "Simulated ALT >3X ULN, frequency", "setting": "simulated individuals", "value": 7.86, "unit": "%"}, {"measurement": "Simulated ALT >3X ULN, frequency", "setting": "simulated individuals; listed as tolvaptan", "value": 7.86, "unit": "%"}, {"measurement": "Simulated ALT >3X ULN", "setting": "simulated individuals; 90/30 mg", "value": "18/229"}, {"measurement": "Simulated Hy's Law Cases", "setting": "simulated individuals; 90/30 mg", "value": "Yes"}, {"measurement": "Clinical Hy's Law Cases", "setting": "[8]; ADPKD", "value": "Yes"}, {"measurement": "Clinical ALT >3X ULN, frequency", "setting": "[8]; treated ADPKD patients", "value": "4.4% and 5.6%"}]}
